The results in this text go back to article PMC9763329, “Targeting the transcription factor HES1 by L-menthol restores protein phosphatase 6 in keratinocytes in models of psoriasis” (Nature Communications, 2022).

Experiment [1] deals with T1, Hes1 (Mus musculus, UniProt P35428).
T1 construct: endogenous Hes1 in primary mouse keratinocyte lysate, detected by anti-HES1 immunoblot
T1 sequence (P35428 1-282): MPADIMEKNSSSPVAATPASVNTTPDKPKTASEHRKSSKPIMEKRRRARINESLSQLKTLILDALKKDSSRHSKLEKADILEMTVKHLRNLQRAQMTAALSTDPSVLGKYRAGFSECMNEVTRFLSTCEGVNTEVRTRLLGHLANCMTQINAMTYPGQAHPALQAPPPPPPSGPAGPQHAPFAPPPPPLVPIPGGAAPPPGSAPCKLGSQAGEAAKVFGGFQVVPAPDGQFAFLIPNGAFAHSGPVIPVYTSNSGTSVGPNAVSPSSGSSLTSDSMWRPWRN
Briefly: DARTS (pronase protection, anti-HES1 immunoblot). Type of experiment: biochemical. As to conditions: primary mouse keratinocyte lysate; 30 min L-menthol then 20 min pronase, room temperature.

The target of experiment [2] is T2, HES1 (transcription factor hairy and enhancer of split 1) (Homo sapiens, UniProt Q14469).
T2 construct: Human HES1 in pET-28a(+), C-terminal 6xHis tag kept, E. coli BL21(DE3), nickel and size-exclusion purified
T2 sequence (Q14469 1-280): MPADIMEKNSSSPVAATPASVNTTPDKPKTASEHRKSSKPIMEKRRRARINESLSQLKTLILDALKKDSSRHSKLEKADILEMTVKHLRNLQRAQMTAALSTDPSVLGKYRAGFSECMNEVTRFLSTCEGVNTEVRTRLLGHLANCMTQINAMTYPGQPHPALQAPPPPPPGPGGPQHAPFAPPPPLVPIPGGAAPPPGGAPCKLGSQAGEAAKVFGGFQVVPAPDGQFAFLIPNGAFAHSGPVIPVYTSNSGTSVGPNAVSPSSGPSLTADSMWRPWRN
Briefly: microscale thermophoresis (Monolith NT.[…]). It counts as binding. A general note: In MST a laser heats a spot of the sample, and binding alters the fluorescence response.

As a reminder, the Kd is a measure of binding affinity in units of concentration.

In the case of `CC(C)[C@@H]1CC[C@@H](C)C[C@H]1O` [L-menthol], the “DARTS (pronase protection, anti-HES1 immunoblot)” value in experiment [1] was “interaction between HES1 and L-menthol was verified in HaCaT cells”. Further, in experiment [2], the Kd amounted to 16.8 nM.
